Experimental findings from patent US20050112079A1, “Depilatories and agents for external use” (KAO CORPORATION, priority 1999, published 2005) are described below.

The subject of experiment [1] is hair at the dorsal part of a guinea pig. Briefly: Depilation inducing effects of endothelin, intracutaneous administration. It counts as in vivo. The conditions noted are these: 0.3 μg intracutaneous (50 μL/site), 10 days after the administration. On the procedure:
A solution of endothelin-1 (0.3 μg) in phosphate buffer solution (PBS), which contained 0.1% of bovine serum albumin (BSA), was intracutaneously administered (at 50 μL/site) to the dorsal part of a guinea pig.

Experiment [2] deals with growth-phase hair follicles. Briefly: Growth-phase hair follicle inhibitory effects, number of hair shafts grown per unit area. It counts as in vivo. As to conditions: guinea pig dorsal, 1 μg intracutaneous, fifth day after the administration (FIG. 1). On the procedure:
Solutions (1 μg, each) of endothelin-1, endothelin-2 and endotherin-3 in aliquots of phosphate buffer solution (PBS), which contained 0.1% of bovine serum albumin (BSA), were intracutaneously administered (at 50 μL/site) to the dorsal parts of guinea pigs, respectively, from which hair had been cut off by a hair clipper. Three days after the administration, hair was again cut off by a hair clipper from the administered sites. Two days after the cutting, the numbers of hair shafts grown per unit area at the administered sites were counted.

Experiment [3] concerns growth-phase hair follicle. As to the kind of experiment: Structural changes of hair follicle structure, hematoxylin-eosin stained dorsal skin. In kind it is in vivo. As to conditions: guinea pig, 0.3 μg intracutaneous. As for the experimental part:
A solution of endothelin-1 (0.3 μg) in phosphate buffer solution (PBS), which contained […] of bovine serum albumin (BSA), was intracutaneously administered (at 50 μL/site) to the dorsal part of a guinea pig. After that, samples were collected day after day from the administered dorsal skin, and tissue samples were prepared by hematoxylin-eosin staining.

In experiment [4] the test system is hair follicle organs in growth phase isolated from human scalp tissue. Briefly: Growth inhibitory effects on organ-cultured hair follicles. It counts as cell-based. On the procedure:
From a human scalp tissue, hair follicle organs in growth phase were surgically isolated under a stereomicroscope. Following a conventional procedure [Philpott M. P., et al., J. Cell Sci., 97, 463-471 (1990)], the isolated hair follicles were subjected to organ culture. Described specifically, endothelin-1 was added to William's E medium which contained L-glutamine (2 mM), hydrocortisone (10 ng/mL), insulin (10 μg/mL), sodium selenite (10 ng/mL) and transferrin (10 μg/mL).

Experiment [5] has as its system regrowth of dorsal hair. Briefly: Hair growth test in mice, application to depilated skin. It counts as in vivo, C3H/HeNCrj mouse. As to conditions: mouse, 0.5 mg in 2.5 mL PEG 400/PEG 3350 (95/5), 25 μL/application once a day over 2 weeks; regrown hair area/depilated area×100. On the procedure:
Endothelin-1 (0.5 mg) was dissolved in a mixed solution (2.5 mL) of polyethylene glycol 400 (average molecular weight: 400) and polyethylene glycol 3350 (average molecular weight: 3,350) (mixing ratio: 95/5) to prepare a hair growth inhibitor. Dorsal hair of each 8-week old C3H/HeNCrj mouse was removed with a depilatory cream (over an area of 2×4 cm^2), and the hair growth inhibitor was applied to the depilated site once a day at a dose of 25 μL/application over 2 weeks. A group in which only the solvent was similarly applied was employed as a control group. To observe regrowth of hair, the above-described depilated site on day 14 after the depilation was photographed at a predetermined fixed magnification, and the percentage of a regrown hair area (regrown hair area/depilated area×100) was determined using an image analyzer.

Where no end group is shown, it is not given here.

With `CC[C@H](C)[C@H](NC(=O)[C@H](CC(=O)O)NC(=O)[C@H](CC(C)C)NC(=O)[C@H](Cc1c[nH]cn1)NC(=O)[C@@H]1CSSC[C@H](N)C(=O)N[C@@H](CO)C(=O)N[C@H]2CSSC[C@H](NC(=O)[C@H](CCC(=O)O)NC(=O)[C@H](CCCCN)NC(=O)[C@H](CC(=O)O)NC(=O)[C@H](CCSC)NC(=O)[C@H](CC(C)C)NC(=O)[C@H](CO)NC(=O)[C@H](CO)NC2=O)C(=O)N[C@@H](C(C)C)C(=O)N[C@@H](Cc2ccc(O)cc2)C(=O)N[C@@H](Cc2ccccc2)C(=O)N1)C(=O)N[C@H](C(=O)N[C@@H](Cc1c[nH]c2ccccc12)C(=O)O)[C@@H](C)CC` [Endothelin-1, endothelin-1], in experiment [1], the “Depilation at the administered site” value was “hair shaft falling-off and formation of a marked depilation spot”. The “Number of hair shafts grown per unit area at the administered site” value in experiment [2] is “significant (p<0.01) decrease in the number of hair shafts”. Besides, the Hair follicle histology entry is “regressed image of a growth-phase hair follicle” in experiment [3] (1st day after the administration (FIG. 2)) and “image of a follicular tissue in transition phase” in experiment [3] (3rd day after the administration (FIG. 2)). Besides, the “Grown hair follicle length versus control group” value in experiment [4] (day 4 of incubation and the subsequent days (FIG. 3)) is “significant hair growth inhibitory effects”. In addition, the “Structural change of incubated hair follicles” value in experiment [4] (during the incubation period (FIG. 4)) was “structural change of the endothelin-treated, growth-phase hair follicles into those similar to resting-phase hair follicles”. Also, the “Percentage of regrown hair area on day 14 after depilation” value in experiment [5] is listed as 2.22 Percentage.

As to “endothelin-2 (CSCSSWLDKECVYFCHLDIIW; ends and bridges not checked; cysteine pairing not given here; UniProt P20800 49-69, looked up) [isoform of endothelin, a peptide composed of 21 amino acid residues]”, the “Number of hair shafts grown per unit area at the administered site” value in experiment [2] was “significant (p<0.01) decrease in the number of hair shafts”.

Take “endothelin-3 (CTCFTYKDKECVYYCHLDIIW; ends and bridges not checked; cysteine pairing not given here; UniProt P14138 97-117, looked up) [endotherin-3, isoform of endothelin, a peptide composed of 21 amino acid residues]”: in experiment [2], the “Number of hair shafts grown per unit area at the administered site” value is given as “significant (p<0.01) decrease in the number of hair shafts”.
